Assay results taken from patent US11505835B2, “Method for determining the identity and antimicrobial susceptibility of a microorganism” (Q-linea AB, priority 2014, dated 2022).
In brackets after ≈: the same amount, converted by molar mass.

What was measured:
E. coli [1] = assay: AST by counting individual bacteria in a flow cytometry type instrument (Aquila 400); MIC from differential growth relative to positive control; type: cell-based
Procedure: The sample was enriched for bacteria and at the same time the culture media was changed, in this case to Mueller-Hinton media (MH-media). E. coli bacteria were recovered via filtration through a 0.2 μm filter and the recovered bacteria were resuspended in MH-media to a concentration of approximately 10^8 CFU/ml in Müller Hinton broth before being diluted to approximately 10^6 CFU/ml in Müller Hinton Broth. Antibiotic solutions were prepared in a series of 2:1 serial dilutions in Müller Hinton broth at 10×test concentrations. The range of antibiotic concentrations was chosen based on identity of the bacteria and the antibiotic. […] A series of eight different concentrations was selected based on known clinical MIC values. Eight sample tubes containing 100 μl antibiotic solution at eight different concentrations and 800 μl Müller Hinton broth were prepared. One additional tube contains 900 μl Müller Hinton broth and no antibiotic as positive control. 100 μl bacterial suspension (10^6 CFU/ml) was added to all nine tubes. A negative control sample comprising 1000 μl Müller Hinton broth (i.e. no bacteria) is prepared as negative control. All tubes were incubated at 35° C. and samples were taken after 0, 4, 6 and 24 hours. Bacterial samples were prepared for counting as in Example 2. Bacterial AST profiles were determined using a flow cytometry based counting of individual bacteria in an Aquila 400 instrument (Q-linea AB, Sweden). Aquila 400 analysis was performed using the alexa 488 laser. […] MIC values for each antibiotic at different time points and cut-off values were calculated based on the differential bacterial growth.

E. coli [2] = settings: determined by another lab; cited from earlier work
E. coli [3] = assay: MIC with Macrobroth dilution; type: cell-based; settings: reference method; for MIC: Escherichia coli
[4] = Escherichia coli, 4 h, cut-off 15%, 4 hours, Müller Hinton broth, 35° C., read-out: MIC
[5] = Escherichia coli, 4 h, cut-off 20%, 4 hours, Müller Hinton broth, 35° C., read-out: MIC
[6] = Escherichia coli, 6 h, cut-off 5%, 6 hours, Müller Hinton broth, 35° C., read-out: MIC
[7] = Escherichia coli, 6 h, cut-off 10%, 6 hours, Müller Hinton broth, 35° C., read-out: MIC
[8] = Escherichia coli, 6 h, cut-off 15%, 6 hours, Müller Hinton broth, 35° C., read-out: MIC
[9] = Escherichia coli, 6 h, cut-off 20%, 6 hours, Müller Hinton broth, 35° C., read-out: MIC
[10] = Escherichia coli, 24 h, cut-off 15%, 24 hours, Müller Hinton broth, 35° C., read-out: MIC
[11] = Escherichia coli, 24 h, cut-off 20%, 24 hours, Müller Hinton broth, 35° C., read-out: MIC
[12] = Escherichia coli, 4 h, cut-off 5%, 4 hours, Müller Hinton broth, 35° C., read-out: MIC
[13] = Escherichia coli, 4 h, cut-off 10%, 4 hours, Müller Hinton broth, 35° C., read-out: MIC
[14] = Escherichia coli, 24 h, cut-off 5%, 24 hours, Müller Hinton broth, 35° C., read-out: MIC
[15] = Escherichia coli, 24 h, cut-off 10%, 24 hours, Müller Hinton broth, 35° C., read-out: MIC

CO/N=C(\C(=O)N[C@@H]1C(=O)N2C(C(=O)O)=C(COC(C)=O)CS[C@H]12)c1csc(N)n1 [Cefotaxime] gave an MIC (E. coli [1]; [4]) of 0.06 µg/mL (≈ 0.132 µM), an MIC (E. coli [1]; [5]) of 0.06 µg/mL (≈ 0.132 µM) and an MIC (E. coli [1]; [6]) of 0.06 µg/mL (≈ 0.132 µM). For the same molecule, the MIC (E. coli [1]; [7]) was 0.06 µg/mL (≈ 0.132 µM), the MIC (E. coli [1]; [8]) was 0.03 µg/mL (≈ 0.0659 µM) and the MIC (E. coli [1]; [9]) was 0.03 µg/mL (≈ 0.0659 µM). For the same molecule, the MIC (E. coli [1]; [10]) was 0.06 µg/mL (≈ 0.132 µM), the MIC (E. coli [1]; [11]) was 0.06 µg/mL (≈ 0.132 µM) and the “MIC with E-test” value (E. coli [2]) was ≤ 0.5 µg/mL.
For CC(C)(O/N=C(\C(=O)N[C@@H]1C(=O)N2C(C(=O)[O-])=C(C[n+]3ccccc3)CS[C@H]12)c1csc(N)n1)C(=O)O [Ceftazidime], the MIC (E. coli [1]; [12]) was 0.25 µg/mL (≈ 0.457 µM), the MIC (E. coli [1]; [13]) was 0.25 µg/mL (≈ 0.457 µM) and the MIC (E. coli [1]; [14]) was 0.25 µg/mL (≈ 0.457 µM). For the same molecule, the MIC (E. coli [1]; [15]) was 0.25 µg/mL (≈ 0.457 µM), the MIC (E. coli [1]; [10]) was 0.25 µg/mL (≈ 0.457 µM) and the MIC (E. coli [1]; [11]) was 0.25 µg/mL (≈ 0.457 µM). For the same molecule, the MIC (E. coli [3]) was 0.25 µg/mL (≈ 0.457 µM) and the “MIC with E-test” value (E. coli [2]) was ≤ 0.5 µg/mL.
With O=C(O)c1cn(C2CC2)c2cc(N3CCNCC3)c(F)cc2c1=O [Ciprofloxacin] the MIC (E. coli [1]; [12]) was 0.016 µg/mL (≈ 0.0483 µM), the MIC (E. coli [1]; [13]) was 0.008 µg/mL (≈ 0.0241 µM) and the MIC (E. coli [1]; [4]) was 0.008 µg/mL (≈ 0.0241 µM). For the same molecule, the MIC (E. coli [1]; [5]) was 0.008 µg/mL (≈ 0.0241 µM), the MIC (E. coli [1]; [6]) was 0.008 µg/mL (≈ 0.0241 µM) and the MIC (E. coli [1]; [7]) was 0.008 µg/mL (≈ 0.0241 µM). For the same molecule, the MIC (E. coli [1]; [8]) was 0.008 µg/mL (≈ 0.0241 µM), the MIC (E. coli [1]; [9]) was 0.004 µg/mL (≈ 0.0121 µM) and the MIC (E. coli [1]; [14]) was 0.008 µg/mL (≈ 0.0241 µM). The MIC (E. coli [1]; [15]) was 0.008 µg/mL (≈ 0.0241 µM), the MIC (E. coli [1]; [10]) was 0.008 µg/mL (≈ 0.0241 µM) and the MIC (E. coli [1]; [11]) was 0.008 µg/mL (≈ 0.0241 µM). The MIC (E. coli [3]) was 0.016 µg/mL (≈ 0.0483 µM) and the “MIC with E-test” value (E. coli [2]) was ≤ 0.03 µg/mL.
For C[C@@H](O)[C@H]1C(=O)N2C(C(=O)O)=C(S[C@@H]3CN[C@H](C(=O)N(C)C)C3)[C@H](C)[C@H]12 [Meropenem], the MIC (E. coli [1]; [5]) was 0.5 µg/mL (≈ 1.3 µM), the MIC (E. coli [1]; [8]) was 0.5 µg/mL (≈ 1.3 µM) and the MIC (E. coli [1]; [9]) was 0.25 µg/mL (≈ 0.652 µM). The MIC (E. coli [1]; Escherichia coli, 24 h) was 0.125 µg/mL (≈ 0.326 µM), the MIC (E. coli [1]; [14]) was 0.5 µg/mL (≈ 1.3 µM) and the MIC (E. coli [1]; [15]) was 0.5 µg/mL (≈ 1.3 µM). For the same molecule, the MIC (E. coli [1]; [10]) was 0.25 µg/mL (≈ 0.652 µM), the MIC (E. coli [3]) was 0.25 to 0.5 µg/mL (≈ 0.652 to 1.3 µM) and the “MIC with E-test” value (E. coli [2]) was ≤ 0.25 µg/mL.
With Gentamicin the MIC (E. coli [1]; cut-off 5%, 4 hours, Müller Hinton broth, 35° C.) was 1 µg/mL, the MIC (E. coli [1]; cut-off 5%, 6 hours, Müller Hinton broth, 35° C.) was 0.5 µg/mL and the MIC (E. coli [1]; cut-off 5%, 24 hours, Müller Hinton broth, 35° C.) was 1 µg/mL. For the same molecule, the MIC (E. coli [1]; cut-off 10%, 4 hours, Müller Hinton broth, 35° C.) was 0.5 µg/mL, the MIC (E. coli [1]; cut-off 10%, 6 hours, Müller Hinton broth, 35° C.) was 0.5 µg/mL and the MIC (E. coli [1]; cut-off 10%, 24 hours, Müller Hinton broth, 35° C.) was 1 µg/mL. For the same molecule, the MIC (E. coli [1]; cut-off 15%, 4 hours, Müller Hinton broth, 35° C.) was 0.5 µg/mL, the MIC (E. coli [1]; cut-off 15%, 6 hours, Müller Hinton broth, 35° C.) was 0.5 µg/mL and the MIC (E. coli [1]; cut-off 15%, 24 hours, Müller Hinton broth, 35° C.) was 1 µg/mL. It also gave an MIC (E. coli [1]; cut-off 20%, 4 hours, Müller Hinton broth, 35° C.) of 0.5 µg/mL, an MIC (E. coli [1]; cut-off 20%, 6 hours, Müller Hinton broth, 35° C.) of 0.5 µg/mL and an MIC (E. coli [1]; cut-off 20%, 24 hours, Müller Hinton broth, 35° C.) of 1 µg/mL. For the same molecule, the “MIC with Macrobroth dilution” value (E. coli [3]) was 0.5 to 1 µg/mL and the “MIC with E-test” value (E. coli [2]) was 1 µg/mL.
